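Values below derive from 48-hour exposures of cells grown in 96-well plates, with endpoints linearly interpolated between the two concentrations bracketing the appropriate inhibition level. GI50: concentration for 50% inhibition of growth.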 Activity calls are given as the source filed them. No stated cut-off is given here; in the data, active = GI50 up to about 1.1 µM and inactive = higher.

Common to all, as to assay: NCI tumour cell line growth inhibition, 48 h
Assay [1] deals with COLO 205.
For assay [2], the system named is HCC 2998.
The test system of assay [3] is HCT-15.
Assay [4] relates to Hs-578T.
The subject of assay [5] is IGROV-1.
The subject of assay [6] is LXFL 529.
Assay [7] deals with M14.
The test system of assay [8] is MDA-MB-231.
The test system of assay [9] is MDA-N.
Assay [10] relates to Malme-3M.
For assay [11], the system named is NCI-H226.
Assay [12] deals with PC-3.
The subject of assay [13] is RPMI-8226.
Assay [14] has as its system SK-OV-3.
Assay [15] concerns SNB-19.
Assay [16] deals with SR.
The test system of assay [17] is SW-620.
Assay [18] relates to TK-10.
Assay [19] concerns UACC-62.
Assay [20] relates to UO-31.

In the case of `Cc1ccc(C(=O)N(C(C)C)C(C)C)cc1/N=N/N(C)C`, the GI50 in assay [1] was > 100 µM (inactive); in assay [2], > 100 µM (inactive); in assay [3] it was greater than 82.6 µM; in [4] it was 96.6 µM (inactive); in assay [5], > 100 µM (inactive); in [6], 31.2 µM (inactive). Also, the GI50 in assay [7] was > 100 µM (inactive); in [8] it was > 100 µM (inactive); in [9] it was > 100 µM (inactive); in assay [10], 84.7 µM (inactive); in assay [11], > 100 µM (inactive); in assay [12], > 100 µM (inactive). For the same molecule, the GI50 in assay [13] was 33 µM (inactive); in assay [14], > 100 µM (inactive); in assay [15], > 100 µM (inactive); in assay [16], 41.4 µM (inactive); in [17], > 92.3 µM (inactive); in [18] it was > 100 µM (inactive). The figures for the GI50 in assay [19] and in [20] were > 80.5 µM (inactive) and > 61.4 µM (inactive), respectively.

On to `O=C1C(Cl)=C(N2CCN(C3=C(Cl)C(=O)c4ccccc4C3=O)CC2)C(=O)c2ccccc21`, for which the GI50 was 1.69 µM (inactive) in [1]; 2.78 µM (inactive) in assay [2]; 1.61 µM in assay [3]; 2.22 µM (inactive) in [4]; 1.91 µM (inactive) in assay [5]; 0.297 µM (active) in assay [6]. The GI50 in assay [7] was 1.53 µM (inactive); in [8] it was 1.64 µM (inactive); in assay [9], 1.86 µM (inactive); in assay [10] it was 1.91 µM (inactive); in assay [11], 4.25 µM (inactive); in assay [12] it was 7.31 µM (inactive). Besides, the GI50 in assay [13] was 0.436 µM (active); in assay [14], 14.1 µM (inactive); in assay [15] it was 14.9 µM (inactive); in assay [16], 0.179 µM (active); in [17], 1.17 µM (inactive); in assay [18], 1.96 µM (inactive). The GI50 was 1.79 µM (inactive) in [19] and 1.45 µM (inactive) in [20].

Regarding `N#CC1(C#N)C(C#N)(C#N)C12CCCCCC2`, the GI50 in assay [1] is 15.7 µM (inactive); in [2], 19.6 µM (inactive); in assay [3] it was 8.41 µM; in assay [5], 40.2 µM (inactive); in assay [6], 15.2 µM (inactive); in [7] it was 2.81 µM (inactive). In addition, the GI50 in [10] is 16.4 µM (inactive); in assay [11], 20 µM (inactive); in assay [13], 3.28 µM (inactive); in assay [14], > 64.4 µM (inactive); in assay [15] it was 29.4 µM (inactive); in assay [16] it was 22.1 µM (inactive). The GI50 was 1.95 µM (inactive) in assay [17], 16.8 µM (inactive) in assay [18], 12.9 µM (inactive) in assay [19] and 18.5 µM (inactive) in assay [20].

Take `COc1ccc(/C=C\c2cc(OC)c3c(c2)OCO3)c(O)c1O`: the GI50 in assay [1] is 21.2 µM (inactive); in assay [2], 21.5 µM (inactive); in [3] it was 11 µM; in [5], 4.71 µM (inactive); in [6], 2.07 µM (inactive); in assay [7], 3.56 µM (inactive). Further, the GI50 in assay [10] was 13.4 µM (inactive); in [11], 16.1 µM (inactive); in assay [13] it was 2.56 µM (inactive); in [14], 18.6 µM (inactive); in [15] it was 4.74 µM (inactive); in assay [16], 3.78 µM (inactive). In addition, the GI50 in assay [17] was 8.3 µM (inactive); in [18], 24.9 µM (inactive); in assay [19] it was 3.33 µM (inactive); in [20], 5.87 µM (inactive).

The values are drawn from ChEMBL document CHEMBL1201862, “PubChem BioAssay data set” (2004).
